Measured values from patent publication US20230416225A1, “DIAMINOPYRIMIDINE CARBOXAMIDE INHIBITORS OF HPK1” (MERCK SHARP & DOHME LLC, priority 2020, published 2023).

What follows are molecules tested against T1, Human HPK1, catalytic domain (Homo sapiens, UniProt Q92918) (assay: HPK1-SLP76 TR-FRET assay). Settings: 75 pM HPK1, 10 uM ATP, 10 nM SLP76, 30 min compound pre-incubation.
T1 construct: purchased Carna
T1 sequence (Q92918 1-346): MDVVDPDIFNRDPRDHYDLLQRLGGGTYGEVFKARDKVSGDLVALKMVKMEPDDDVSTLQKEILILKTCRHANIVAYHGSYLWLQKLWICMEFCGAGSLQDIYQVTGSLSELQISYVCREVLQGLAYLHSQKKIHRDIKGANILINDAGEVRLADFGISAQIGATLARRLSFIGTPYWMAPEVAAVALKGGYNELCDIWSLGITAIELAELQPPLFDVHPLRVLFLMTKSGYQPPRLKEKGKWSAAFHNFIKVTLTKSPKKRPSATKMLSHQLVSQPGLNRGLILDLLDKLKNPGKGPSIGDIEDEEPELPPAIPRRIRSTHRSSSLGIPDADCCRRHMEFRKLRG
Type: biochemical

Row | IC50 | Structure (SMILES)
1 | 30.6 nM | COc1cc2c(cc1Nc1ncc(C(N)=O)c(Nc3ccccc3Cc3ccccc3)n1)CN(C)CC2 [Example 13-3, 4-[(2-benzylphenyl)amino]-2-[(6-methoxy-2-methyl-1,2,3,4-tetrahydroisoquinolin-7-yl)amino]pyrimidine-5-carboxamide]
2 | 0.65 nM | COc1cc2c(cc1Nc1ncc(C(N)=O)c(Nc3cccc(Cl)c3F)n1)CN(C)CC2 [Example 4-12, 4-[(3-chloro-2-fluorophenyl)amino]-2-[(6-methoxy-2-methyl-1,2,3,4-tetrahydroisoquinolin-7-yl)amino]pyrimidine-5-carboxamide]
3 | 0.6 nM | COC(=O)C1CC2CC(CC(Nc3nc(Nc4cc5c(cc4OC)CCN(C)C5)ncc3C(N)=O)C2)C1 (stereo not drawn) [Example 26-13, methyl 7-({5-carbamoyl-2-[(6-methoxy-2-methyl-1,2,3,4-tetrahydroisoquinolin-7-yl)amino]pyrimidin-4-yl}amino)bicyclo[3.3.1]nonane-3-carboxylate]
4 | 54.8 nM | COc1cc2c(cc1Nc1ncc(C(N)=O)c(Nc3ccccc3C(=O)Nc3ccccc3)n1)CN(C)CC2 [Example 7-117, 2-((6-methoxy-2-methyl-1,2,3,4-tetrahydroisoquinolin-7-yl)amino)-4-((2-(phenylcarbamoyl)phenyl)amino) pyrimidine-5-carboxamide]
5 | 1.83 nM | COc1cc2c(cc1Nc1ncc(C(N)=O)c(Nc3c(F)cc(I)cc3F)n1)CNCC2 [Example 9-12, 4-(2,6-difluoro-4-iodoanilino)-2-[(6-methoxy-1,2,3,4-tetrahydroisoquinolin-7-yl)amino]pyrimidine-5-carboxamide]
6 | 1.44 nM | COc1cc2c(cc1Nc1ncc(C(N)=O)c(Nc3cc(C)nn3CCO)n1)CN(C)CC2 [Example 7-90, 4-((1-(2-hydroxyethyl)-3-methyl-1H-pyrazol-5-yl)amino)-2-((6-methoxy-2-methyl-1,2,3,4-tetrahydroisoquinolin-7-yl)amino)pyrimidine-5-carboxamide]
7 | 0.92 nM | COc1cc2c(cc1Nc1ncc(C(N)=O)c(Nc3ccccc3CC3CCOCC3)n1)CN(C)CC2 [Example 13-2, 2-[(6-methoxy-2-methyl-1,2,3,4-tetrahydroisoquinolin-7-yl)amino]-4-({2-[(oxan-4-yl)methyl]phenyl}amino)pyrimidine-5-carboxamide]
8 | 0.6 nM | COc1cc2c(cc1Nc1ncc(C(N)=O)c(NC3CCCCC3)n1)CN(C)CC2 [Example 26-2, 4-(cyclohexylamino)-2-[(6-methoxy-2-methyl-1,2,3,4-tetrahydroisoquinolin-7-yl)amino]pyrimidine-5-carboxamide]
9 | 1.6 nM | COc1cc2c(cc1Nc1ncc(C(N)=O)c(Nc3ccccc3Br)n1)CN(C1CC(C(=O)O)C1)CC2 (stereo not drawn) [Example 9-10, 3-[7-({4-[(2-bromophenyl)amino]-5-carbamoylpyrimidin-2-yl}amino)-6-methoxy-3,4-dihydroisoquinolin-2(1H)-yl]cyclobutane-1-carboxylic acid]
10 | 6.59 nM | COc1cc2c(cc1Nc1ncc(C(N)=O)c(N[C@H](CO)c3ccccc3)n1)CN(C)CC2 [Example 26-43, 4-{[(1S)-2-hydroxy-1-phenylethyl]amino}-2-[(6-methoxy-2-methyl-1,2,3,4-tetrahydroisoquinolin-7-yl)amino]pyrimidine-5-carboxamide]
11 | 2.62 nM | COc1cc2c(cc1Nc1ncc(C(N)=O)c(NC3CCc4cc(F)cc(F)c43)n1)CN(C)CC2 (stereo not drawn) [Example 26-68, 4-[(5,7-difluoro-2,3-dihydro-1H-inden-1-yl)amino]-2-[(6-methoxy-2-methyl-1,2,3,4-tetrahydroisoquinolin-7-yl)amino]pyrimidine-5-carboxamide]
12 | 69 nM | NC(=O)c1cnc(Nc2ccc(F)c(C(F)(F)F)c2)nc1Nc1cccc2c1CCNC2=O [Example 25-37, 2-{[4-fluoro-3-(trifluoromethyl)phenyl]amino}-4-[(1-oxo-1,2,3,4-tetrahydroisoquinolin-5-yl)amino]pyrimidine-5-carboxamide]
13 | 4.74 nM | COc1cc2c(cc1Nc1ncc(C(N)=O)c(N[C@@H]3CCc4ccccc43)n1)CN(C)CC2 [Example 26-67, 4-{[(1R)-2,3-dihydro-1H-inden-1-yl]amino}-2-[(6-methoxy-2-methyl-1,2,3,4-tetrahydroisoquinolin-7-yl)amino]pyrimidine-5-carboxamide]
14 | 0.81 nM | COc1cc2c(cc1Nc1ncc(C(N)=O)c(Nc3cccc(C)c3)n1)CN(C)CC2 [Example 7-22, 2-[(6-methoxy-2-methyl-1,2,3,4-tetrahydroisoquinolin-7-yl)amino]-4-[(3-methylphenyl)amino]pyrimidine-5-carboxamide]
15 | 2.4 nM | COc1cc2c(cc1Nc1ncc(C(N)=O)c(Nc3ccc(F)c(F)c3F)n1)CN(C)CC2 [Example 4-13, 2-[(6-methoxy-2-methyl-1,2,3,4-tetrahydroisoquinolin-7-yl)amino]-4-[(2,3,4-trifluorophenyl)amino] pyrimidine-5-carboxamide]
16 | 0.12 nM | COc1cc2c(cc1Nc1ncc(C(N)=O)c(Nc3c(F)cccc3Br)n1)CN(C)CC2 [Example 4-4, 4-[(2-bromo-6-fluorophenyl)amino]-2-[(6-methoxy-2-methyl-1,2,3,4-tetrahydroisoquinolin-7-yl)amino]pyrimidine-5-carboxamide]
17 | 1.01 nM | COc1cc2c(cc1Nc1ncc(C(N)=O)c(Nc3c(O)cccc3F)n1)CN(C)CC2 [Example 4-17, 4-[(2-fluoro-6-hydroxyphenyl)amino]-2-[(6-methoxy-2-methyl-1,2,3,4-tetrahydroisoquinolin-7-yl)amino]pyrimidine-5-carboxamide]
18 | 108 nM | COc1ccc(S(C)(=O)=O)cc1Nc1ncc(C(N)=O)c(Nc2cccc3c2CCN(C)C3)n1 [Example 7-61, 2-{[2-methoxy-5-(methylsulfonyl)phenyl]amino}-4-[(2-methyl-1,2,3,4-tetrahydroisoquinolin-5-yl)amino]pyrimidine-5-carboxamide]
19 | 1.43 nM | COc1cc2c(cc1Nc1ncc(C(N)=O)c(NC(C)c3ccccc3C(F)(F)F)n1)CN(C)CC2 (stereo not drawn) [Example 26-22, 2-[(6-methoxy-2-methyl-1,2,3,4-tetrahydroisoquinolin-7-yl)amino]-4-({1-[2-(trifluoromethyl)phenyl]ethyl}amino)pyrimidine-5-carboxamide]
20 | 5.65 nM | COc1cc2c(cc1Nc1ncc(C(N)=O)c(Nc3c(F)cccc3C#N)n1)CN(C)CC2 [Example 4-9]
21 | 3.69 nM | CCOc1ccccc1CNc1nc(Nc2cc3c(cc2OC)CCN(C)C3)ncc1C(N)=O [Example 26-23, 4-{[(2-ethoxyphenyl)methyl]amino}-2-[(6-methoxy-2-methyl-1,2,3,4-tetrahydroisoquinolin-7-yl)amino]pyrimidine-5-carboxamide]
22 | 1.07 nM | COc1cc2c(cc1Nc1ncc(C(N)=O)c(NC3CCC(F)(F)C3)n1)CN(C)CC2 (stereo not drawn) [Example 26-38, 4-[(3,3-difluorocyclopentyl)amino]-2-[(6-methoxy-2-methyl-1,2,3,4-tetrahydroisoquinolin-7-yl)amino]pyrimidine-5-carboxamide]
23 | 0.28 nM | CC(C1CC1)n1cc(Nc2ncc(C(N)=O)c(Nc3cccc4c3CCNC4=O)n2)cn1 (stereo not drawn) [Example 7-46, 2-{[1-(1-cyclopropylethyl)-1H-pyrazol-4-yl]amino}-4-[(1-oxo-1,2,3,4-tetrahydroisoquinolin-5-yl)amino]pyrimidine-5-carboxamide]
24 | 598 nM | COc1cc2c(cc1Nc1ncc(C(N)=O)c(Nc3ccccc3Br)n1)CN(C(=O)C(C)C)CC2 [Example 12-3, 4-[(2-bromophenyl)amino]-2-{[6-methoxy-2-(2-methylpropanoyl)-1,2,3,4-tetrahydroisoquinolin-7-yl]amino}pyrimidine-5-carboxamide]
25 | 15.6 nM | COc1cc2c(cc1Nc1ncc(C(N)=O)c(N[C@H]3c4ccccc4C[C@H]3CO)n1)CN(C)CC2 [Example 26-62, 4-{[(1R,2R)-2-(hydroxymethyl)-2,3-dihydro-1H-inden-1-yl]amino}-2-[(6-methoxy-2-methyl-1,2,3,4-tetrahydroisoquinolin-7-yl)amino]pyrimidine-5-carboxamide]
26 | 186 nM | COc1cc2c(cc1Nc1ncc(C(N)=O)c(Nc3ccccc3Br)n1)CN(C(=O)C1CCC1(F)F)CC2 (stereo not drawn) [Example 12-10, 4-[(2-bromophenyl)amino]-2-{[2-(2,2-difluorocyclobutane-1-carbonyl)-6-methoxy-1,2,3,4-tetrahydroisoquinolin-7-yl]amino}pyrimidine-5-carboxamide]
27 | 111 nM | Cn1cc(Nc2ncc(C(N)=O)c(Nc3cccc4c3CCNC4)n2)c(=O)[nH]1 [Example 7-11, 2-[(1-methyl-3-oxo-2,3-dihydro-1H-pyrazol-4-yl)amino]-4-[(1,2,3,4-tetrahydroisoquinolin-5-yl)amino]pyrimidine-5-carboxamide]
28 | 12.1 nM | CCc1ccc(Nc2ncc(C(N)=O)c(Nc3cccc4c3CCNC4=O)n2)cc1 [Example 25-9, 2-[(4-ethylphenyl)amino]-4-[(1-oxo-1,2,3,4-tetrahydroisoquinolin-5-yl)amino]pyrimidine-5-carboxamide]
29 | 14 nM | CS(=O)(=O)Cc1ccc(Nc2ncc(C(N)=O)c(Nc3ccccc3CO)n2)cc1 [Example 7-68, 4-{[2-(hydroxymethyl)phenyl]amino}-2-({4-[(methylsulfonyl)methyl]phenyl}amino)pyrimidine-5-carboxamide]
30 | 1.42 nM | COc1cc2c(cc1Nc1ncc(C(N)=O)c(Nc3ccccc3Br)n1)CN(C1COC1)CC2 [Example 9-2, 4-[(2-bromophenyl)amino]-2-{[6-methoxy-2-(oxetan-3-yl)-1,2,3,4-tetrahydroisoquinolin-7-yl]amino}pyrimidine-5-carboxamide]
